# Measurements from patent publication US5770617A, “Terbenzimidazoles useful as antifungal agents” (Rutgers, The State University of New Jersey, priority 1997, dated 1998).
# Entries after “also recorded” stand apart in the source; their conditions may differ.
# How the values were obtained:
# [1] = target: T1, calf thymus topoisomerase I (Bos taurus, UniProt F1MN93); assay: Topoisomerase I-mediated DNA cleavage assay (calf thymus enzyme); assay type: biochemical; settings: for Topo I-mediated DNA cleavage (REC, Relative Effective Concentration): concentration relative to Hoechst 33342 (arbitrarily 1) producing the same cleavage on plasmid DNA, calf thymus topoisomerase I
# T1 construct: DNA topoisomerase I was purified from calf thymus gland as reported previously; from tissue; host or cells: calf thymus gland
# T1 sequence (F1MN93 1-767): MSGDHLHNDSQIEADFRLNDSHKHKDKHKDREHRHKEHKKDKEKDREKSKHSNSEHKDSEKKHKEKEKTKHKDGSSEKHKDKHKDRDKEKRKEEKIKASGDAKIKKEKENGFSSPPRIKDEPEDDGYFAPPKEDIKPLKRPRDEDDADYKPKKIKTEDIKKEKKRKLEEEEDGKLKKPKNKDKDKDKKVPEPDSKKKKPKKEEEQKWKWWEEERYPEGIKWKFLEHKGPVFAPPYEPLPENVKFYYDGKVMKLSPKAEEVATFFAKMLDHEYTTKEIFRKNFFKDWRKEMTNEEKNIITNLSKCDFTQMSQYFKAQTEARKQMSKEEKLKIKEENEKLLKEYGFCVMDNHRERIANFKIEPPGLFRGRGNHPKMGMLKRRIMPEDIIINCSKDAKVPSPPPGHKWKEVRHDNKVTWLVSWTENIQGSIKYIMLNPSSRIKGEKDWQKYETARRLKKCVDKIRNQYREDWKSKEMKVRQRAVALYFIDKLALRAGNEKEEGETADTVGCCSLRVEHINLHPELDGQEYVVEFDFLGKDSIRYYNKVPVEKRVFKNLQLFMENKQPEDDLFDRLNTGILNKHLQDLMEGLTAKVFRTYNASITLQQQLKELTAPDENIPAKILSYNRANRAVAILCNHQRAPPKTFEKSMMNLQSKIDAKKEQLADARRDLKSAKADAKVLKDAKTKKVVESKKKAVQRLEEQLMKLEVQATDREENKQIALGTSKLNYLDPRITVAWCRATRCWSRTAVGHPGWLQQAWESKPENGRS
# From the text: A. Topoisomerase I-Mediated DNA Cleavage Assays
# DNA topoisomerase I was purified from calf thymus gland as reported previously by B. D. Halligan et al., J. Biol. Chem., 260, 2475 (1985).
# Plasmid YEpG was also purified by the alkali lysis method followed by phenol deproteination and CsCl/ethidium isopycnic centrifugation as described by T. Maniatis et al., Molecular Cloning, A Laboratory Manual, Cold Spring Harbor Labs, N.Y. (1982) at pages 149-185. The end-labeling of the plasmid was accomplished as previously described by L. F. Liu et al., J. Biol. Chem., 258, 15365 (1983). The cleavage assays were performed as previously reported by A. Y. Chen et al., Cancer Res., 53, 1332 (1993). Human topoisomerase I was isolated as a recombinant fusion protein using a T7 expression system.
# [2] = tested on: human lymphoblast RPMI 8402; assay: MTT cytotoxicity assay, RPMI 8402; assay type: cell-based
# Protocol: The cytotoxicity was determined using the as MTT-microtiter plate tetrazolinium cytotoxicity assay (MTA) following the procedures of F. Denizot et al., J. Immunol. Methods, 89, 271 (1986); J. Carmichael et al., Cancer Res, 47, 936 (1987) and T. J. Mosmann et al., Immunol. Methods, 65, 55 (1983). The human lymphoblast RPMI 8402 and its camptothecin-resistant variant cell line, CPT-K5 were provided by Dr. Toshiwo Andoh (Aichi Cancer Center Research Institute, Nagoya, Japan). See, for example, T. Andoh et al., Adv. Pharmacol., 29B, 93 (1994). The cytotoxicity assay was performed using 96-well microtiter plates. Cells were grown in suspension at 37 ° C. in 5% CO2 and maintained by regular passage in RPMI medium supplemented with 10% heat inactivated fetal bovine serum, L-glutamine (2 mM), penicillin (100 U/ml), and streptomycin (0.1 mg/ml). For determination of IC50, cells were exposed continuously with varying concentrations of drug concentrations and MTT assays were performed at the end of the fourth day.
# [3] = target: T2, Aspergillus topoisomerase I (Aspergillus nidulans, UniProt Q5BGS7); assay: Topoisomerase I cleavage assay, Aspergillus enzyme; assay type: biochemical; settings: DNA cleavage assay
# T2 construct: about 105 kDa by phosphate transfer
# T2 sequence (Q5BGS7 1-871): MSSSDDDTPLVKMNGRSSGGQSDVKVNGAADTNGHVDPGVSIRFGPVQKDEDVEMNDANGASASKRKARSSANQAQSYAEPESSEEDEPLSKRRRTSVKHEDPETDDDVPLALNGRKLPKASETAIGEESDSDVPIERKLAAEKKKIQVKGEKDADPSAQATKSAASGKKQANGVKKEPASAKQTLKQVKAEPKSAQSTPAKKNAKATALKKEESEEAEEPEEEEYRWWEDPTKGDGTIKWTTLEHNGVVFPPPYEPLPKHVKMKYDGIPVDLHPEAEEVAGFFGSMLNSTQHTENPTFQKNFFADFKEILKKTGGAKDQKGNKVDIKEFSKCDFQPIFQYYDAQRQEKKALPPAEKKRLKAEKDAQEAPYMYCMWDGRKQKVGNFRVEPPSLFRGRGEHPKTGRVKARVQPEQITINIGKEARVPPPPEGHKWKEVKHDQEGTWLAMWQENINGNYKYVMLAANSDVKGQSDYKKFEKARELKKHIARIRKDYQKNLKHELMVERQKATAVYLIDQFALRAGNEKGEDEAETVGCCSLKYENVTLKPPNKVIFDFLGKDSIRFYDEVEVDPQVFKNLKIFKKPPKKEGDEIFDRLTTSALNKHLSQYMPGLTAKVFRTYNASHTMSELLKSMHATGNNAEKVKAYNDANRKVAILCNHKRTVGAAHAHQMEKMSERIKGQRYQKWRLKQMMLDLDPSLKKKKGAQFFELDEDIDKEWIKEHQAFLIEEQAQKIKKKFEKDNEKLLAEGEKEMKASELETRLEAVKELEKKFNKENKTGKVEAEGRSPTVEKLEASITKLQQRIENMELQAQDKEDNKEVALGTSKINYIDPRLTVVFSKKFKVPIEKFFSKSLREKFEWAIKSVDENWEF
# Protocol: Two liters of YG medium (0.5% yeast extract and 2% glucose) were inoculated with approximately 5×10^8 conidia/ml. After 16 hours of growth at 37° C., the mycelia were collected, washed with Buffer I (50 mM Tris-HCl, pH 7.7, 1 mM EDTA, 1 mM EGTA, 10% glycerol, 1 mM phenylmethylsulfonyl fluoride and 1 mM 2-mercaptoethanol), and quickly chilled in liquid nitrogen. The frozen mycelia (approximately 20 grams) were ground to powder and resuspended in 300 ml of Buffer I. The lysate was centrifuged at 10K rpm in a Sorval HB3 Rotor for 15 minutes to remove cell debris. The supernatant was made 6% in polyethylene glycol (v/v) and 1M NaCl. After one hour on ice with gentle stirring, the solution was centrifuged at 14K rpm in a Sorvall Rotor for 30 minutes to remove nucleic acids.
# Subsequent steps in purification were the same as described previously for purification of recombinant human DNA topoisomerase I (B. Gatto et al., Cancer Res., 56, 2795 (1996)). Briefly, the supernatant was chromatographed directly onto a hydroxyapatite Bio-gel HTP (BioRad Laboratories, Richmond, Calif.) column. Fractions containing relaxation activity were pooled, diluted and then loaded onto a BioRex70 column (BioRad Laboratories, Richmond, Calif.). The column was developed with a linear gradient from 0.2 to 1M KCl. The peak fractions were pooled and dialyzed overnight at 4° C. against 30 mM potassium phosphate, 50% glycerol (v/v), 0.5 mM EDTA, and 1 mM DTT. Recombinant human topoisomerase I was purified from Escherichia coli BL21 (DE3) harboring PET1B as described previously (Gatto et al., Cancer Res., 56, 2795 (1996)).
# DNA topoisomerase I cleavage assays were performed as described by Y.-H. Hsiang et al., J. Biol. Chem., 260, 14873 (1985). YEpG DNA was linearized with BamHI and then 3 '-end-labeled with Klenow polymerase and α[-^32 P]dCTP. Following phenol extraction and ethanol precipitation, the labeled DNA was resuspended in 10 mM Tris, pH 8.0, and 1 mM EDTA. The DNA cleavage assay was done in a reaction mixture (20 μl) containing 40 mM Tris-HCl, pH 7.8, 100 mM KCl, 10 mM MgCl2, 0.5 mM dithiothreitol, 0.5 mM EDTA, 30 μg/ml bovine serum albumin, 20 ng of labeled YEpG DNA, and […] of Aspergillus or human topoisomerase I diluted to various extents. Following incubation at 23° C. for 15 minutes, the reactions were terminated by the addition of SDS (final concentration 1%) and proteinase K (final concentration 200 μg/ml). Proteinase K treatment continued at 37° C. for another 1 hour. The terminated reactions were either alkali-denatured and then loaded (alkaline loading) or loaded directedly in neutral loading buffer (neutral loading) onto a 1% agarose gel in neutral TPE electrophoresis solution. Gel drying and autoradiography were performed as described by Hsiang et al., cited above.
# [4] = target: T3, mammalian DNA topoisomerase I (Homo sapiens, UniProt P11387); settings: cited from earlier work
# T3 sequence (P11387 1-765): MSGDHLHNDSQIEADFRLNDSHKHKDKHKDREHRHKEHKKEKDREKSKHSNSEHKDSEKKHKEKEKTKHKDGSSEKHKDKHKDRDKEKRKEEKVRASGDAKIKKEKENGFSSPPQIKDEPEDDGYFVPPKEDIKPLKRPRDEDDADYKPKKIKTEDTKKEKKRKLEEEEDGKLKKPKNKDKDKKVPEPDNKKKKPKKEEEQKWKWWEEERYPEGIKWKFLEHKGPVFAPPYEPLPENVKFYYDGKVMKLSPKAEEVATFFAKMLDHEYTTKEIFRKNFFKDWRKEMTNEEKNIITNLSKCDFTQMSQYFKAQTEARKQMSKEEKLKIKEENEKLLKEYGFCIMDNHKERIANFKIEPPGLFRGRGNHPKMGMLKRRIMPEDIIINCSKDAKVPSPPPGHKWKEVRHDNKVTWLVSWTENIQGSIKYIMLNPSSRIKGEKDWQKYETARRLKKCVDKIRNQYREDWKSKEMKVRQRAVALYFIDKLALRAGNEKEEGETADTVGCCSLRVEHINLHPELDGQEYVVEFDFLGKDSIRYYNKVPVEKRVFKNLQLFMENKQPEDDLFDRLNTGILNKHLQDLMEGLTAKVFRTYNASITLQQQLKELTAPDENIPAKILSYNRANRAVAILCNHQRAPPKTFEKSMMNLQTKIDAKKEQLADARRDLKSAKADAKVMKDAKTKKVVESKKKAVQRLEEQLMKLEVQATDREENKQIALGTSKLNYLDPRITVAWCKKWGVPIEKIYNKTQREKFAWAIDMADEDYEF
# [5] = tested on: yeast cells expressing yeast topoisomerase I; assay: Yeast cytotoxicity assay, yeast topoisomerase I; assay type: cell-based, S. cerevisiae
# From the text: (§1) The topoisomerase I-specific in vivo cytotoxicity assay was adapted from A. M. Knab et al., J. Biol. Chem., 268, 22322 (1993). In this system, various topoisomerase I genes or cDNAs cloned into the single-copy yeast plasmid vector (YCpGAL1; Knab et al., cited above) are expressed under the control of the GAL1 promoter in the JN2-134 strain of S. cerevisiae (MAT, rad52::Leu2, trp1, ade2-1, his7, ura3-52, ise1, top1-1, and leu2; M. A. Bjornsti et al., Cancer Res., 49, 6318 (1989)). The topoisomerase I gene or cDNA constructs in the vector are, respectively, the wild-type yeast topoisomerase I gene (YCpGAL-ScTOP1; need cite (1989)), a nonfunctional topoisomerase I gene where the active site tyrosine-727 is mutated to phenylalanine (YCPGAL1-Sctop1Y727; A. M. Knab et al., J. Biol. Chem., 268, 22322 (1993)), and the wild-type human topoisomerase I cDNA (YCp-GAL-hTOP1; M. A. Bjornsti et al., Cancer Res., 49, 6318 (1989)).
# (§2) To qualitatively test the cytotoxicity and the topoisomerase I specificity of the drugs, yeast cells containing the specified plasmid were grown in dropout medium supplemented with uracil, 2% galactose, and the drug being tested.
# [6] = tested on: yeast cells expressing nonfunctional yeast topoisomerase I; assay: Yeast cytotoxicity assay, nonfunctional yeast topoisomerase I; assay type: cell-based, S. cerevisiae
# From the text: as §1, §2
# [7] = tested on: yeast cells expressing human topoisomerase I; assay: Yeast cytotoxicity assay, human topoisomerase I; assay type: cell-based, S. cerevisiae
# From the text: as §1, §2
# human topoisomerase I = target: T4, human topoisomerase I (Homo sapiens, UniProt P11387); settings: cited from earlier work
# T4 construct: made in house; host or cells: Escherichia coli BL21 (DE3) harboring PET1B
# T4 sequence (P11387 1-765): T3 sequence (P11387 1-765)
smiles,measurement,setting,value
"CCCc1ccc2[nH]c(-c3ccc4[nH]c(-c5ccc6[nH]cnc6c5)nc4c3)nc2c1 [Compound 12, 5-Propyl-2-[2'-(benzimidazol-5""-yl)benzimidazol-5'-yl]benzimidazole]","potency as topoisomerase I inhibitor compared with Hoechst 33342, in words",[1],much less active
same,"Topo I-mediated DNA cleavage (REC, Relative Effective Concentration)",[1],100
same,"cytotoxicity towards RPMI 8402, in words",[2],weak cytotoxicity
"Brc1ccc2[nH]c(-c3ccc4[nH]c(-c5ccc6[nH]cnc6c5)nc4c3)nc2c1 [JSKIV-37, 5-Bromo-2-[2'-(benzimidazol-5""-yl)benzimidazol-5'-yl]-benzimidazole]","Topo I-mediated DNA cleavage (REC, Relative Effective Concentration)",[1],1
same,IC50,"[2]; Homo sapiens, RPMI 8402, 96 h, read-out: Cytotoxicity IC50 RPMI",1.4 µM
O=[N+]([O-])c1ccc2nc(-c3ccc(O)cc3)[nH]c2c1 [QS/II/51],"inhibition (poisoning) of Aspergillus topoisomerase I, in words",[3],"None of the mono-benzimidazoles, including QS/II/50, QS/II/51, QS/II/59A, an QS/II/9, exhibited any inhibitory effect"
same,"inhibition (poisoning) of mammalian DNA topoisomerase I, previous studies",[4],inhibitors (poisons)
COc1cc2c[n+](C)c3c4cc5c(cc4ccc3c2cc1OC)OCO5 [nitidine],cytotoxicity to yeast cells expressing functional yeast topoisomerase I,[5],not cytotoxic
same,cytotoxicity to yeast cells expressing nonfunctional yeast topoisomerase I,[6],not cytotoxic
same,"inhibition (poisoning) of Aspergillus topoisomerase I, in words",[3],completely resistant; also recorded: did not inhibit Aspergillus topoisomerase I to any significant extent
same,cytotoxicity to yeast cells expressing human topoisomerase I,[7],highly cytotoxic
same,"inhibition of human topoisomerase I, in words (known / previously disclosed)",human topoisomerase I,highly potent inhibitors
